Test results taken from patent publication US8853279B2, “Method for determining sensitivity or resistance to compounds that activate the brain serotonin system” (Cornell University, priority 2008, dated 2014).

Assays:
BDNF^Met/Met mice = experiment: Novelty-induced hypophagia after long-term fluoxetine in adult mice; assay type: in vivo; conditions: adult P60 BDNF^Met/Met mice; fluoxetine orally 18 mg/kg of body weight per day for 21 days
Protocol: A common treatment for depression and anxiety disorders in humans is administering serotonin reuptake inhibitors (SSRI's), for which one postulated mechanism of action involves increasing BDNF levels (R. S. Duman, L. M. Monteggia, Biol Psychiatry 59, 1116 (Jun. 15, 2006)). Adult P60 BDNF^Met/Met mice were treated orally with fluoxetine (18 mg/kg of body weight per day) or vehicle for 21 days before assessment in novelty-induced hypophagia. In this conflict test, mice are trained to approach a reward (sweetened milk) in their home cage and then placed in a novel brightly lit cage. The latency to approach and drink the sweetened milk is a measure of the anxiety-related behavior associated with this task (S. C. Dulawa, K. A. Holick, B. Gundersen, R. Hen, Neuropsychopharmacology 29, 1321 (July, 2004)).

wildtype mice = experiment: Elevated plus maze at P90 after early life fluoxetine (P21-P40); assay type: in vivo; conditions: fluoxetine 18 mg/kg per day via drinking water P21-P40, tested at P90
Text: (§1) FIG. 9. Anxiety-related behavior after early life flouxetine in BDNF Val66Met mice in the elevated plus maze test. (A). Percentage time spent in the open arm (B) and percentage of open arm entries in the plus maze, as well as (C) total distance traveled in wildtype) WT and BDNF^Met/Met (Met/Met) mice treated with water (H2O) or with flouxetine (FLX) from P21-P40. All results are presented as a mean±SEM determined from analysis of 5 mice/genotype (*p<0.05), Student's t test.
(§2) The feasibility of these timed pharmacological studies was first assessed. To BDNFMet mice, chronic fluoxetine (18 mg/kg per day) was administered via the drinking water from P21 (post-weaning)-P40 (adolescence) (FIG. 8) for a duration of time established to produce increased BDNF levels and anti-anxiety effects in adult mice [Dulawa, S. C., Holick, K. A., Gundersen, B., and Hen, R. (2004). Effects of chronic fluoxetine in animal models of anxiety and depression. Neuropsychopharmacology 29, 1321-1330; Duman, R. S., and Monteggia, L. M. (2006). A neurotrophic model for stress-related mood disorders. Biol Psychiatry 59, 1116-1127].
(§3) Early-life blockade of the 5-HT transporter alters emotional behavior in adult mice. Science 306, 879-881], which was not observed by this P21-P40 timed treatment.

BDNF^Met mice = experiment: as above; assay type: in vivo; conditions: fluoxetine 18 mg/kg per day via drinking water P21-P40, tested at P90
Text: as §1, §2, §3

P60 BDNF^Met/Met mice = experiment: Two anxiety tests, response to chronic fluoxetine; assay type: in vivo
Text: It was chosen to continue to use fluoxetine as it is the prototypic SSRI that has been established to increase BDNF levels, and for which a significant amount of clinical data on response to affective disorders.

mice = conditions: fluoxetine treatment at P4-P21; Ansorge et al. 2004; cited from earlier work

CNCCC(Oc1ccc(C(F)(F)F)cc1)c1ccccc1 (centres unmarked) [fluoxetine]
latency to drink in the novel cage (BDNF^Met/Met mice): did not significantly decrease
anxiety-related behaviors in the elevated plus maze test (wildtype mice): No effects were observed
anxiety-related behavior in the elevated plus maze test (BDNF^Met mice): rescue of altered anxiety-related behavior
response to chronic fluoxetine as measured by two anxiety tests (P60 BDNF^Met/Met mice): decreased response
anxiety-related behaviors (mice): increased anxiety-related behaviors
